Test [1] deals with catalytic domain of human JAK3 (Homo sapiens, UniProt P52333). The test can be described thus: Inhibition of JAK3 activity (Z'-Lyte Kinase Assay kit-Tyr 6 Peptide). Format: biochemical. On the procedure:
The inhibition of JAK3 kinase activity was determined in 384-well assay microplates using the Z′-Lyte® Kinase Assay kit-Tyr 6 Peptide kit, supplied by Invitrogan (Ref: PV4122), following the manufacturer's instructions.
(§1) In a final volume of 10 μL per well, 2.5 μL of the product to be tested dissolved in 4% DMSO (final concentration of the product to be tested, 0.1-10000 nM) was incubated with 0.3 μg/mL of the catalytic domain of human JAK3 (amino acid sequence 281-1124), 2 μM of the substrate peptide Z′-Lyte® Tyr 6 and 4 μM of ATP; all components were dissolved in 50 mM pH 7.5 Hepes buffer, 10 mM Magnesium chloride (II), 1 mM EGTA and 0.01% Brij® 35. The reaction was started by the addition of said 4 μM ATP; after incubation for 1 hour at 25° C., 5 μL of A Z′-Lyte® Tyr 6 development reagent was added and the mixture was incubated for 1 hour at 25° C. Phosphorylation was then quantified in each well using a Safire2® fluorescence microplate reader from Tecan.

The target in test [2] is T1, catalytic domain of human JAK2 (Homo sapiens, UniProt O60674).
T1 construct: the catalytic domain of human JAK2
T1 sequence (O60674 849-1124 limits assumed): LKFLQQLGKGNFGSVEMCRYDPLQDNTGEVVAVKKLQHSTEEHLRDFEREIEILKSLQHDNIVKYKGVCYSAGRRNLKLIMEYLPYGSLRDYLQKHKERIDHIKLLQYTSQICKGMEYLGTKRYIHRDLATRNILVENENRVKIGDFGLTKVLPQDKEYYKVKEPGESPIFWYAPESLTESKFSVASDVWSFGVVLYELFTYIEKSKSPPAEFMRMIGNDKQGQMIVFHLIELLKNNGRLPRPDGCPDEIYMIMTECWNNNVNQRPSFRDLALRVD
Briefly: Inhibition of JAK2 activity (Z'-Lyte Kinase Assay kit-Tyr 6 Peptide). Type of test: biochemical. On the procedure:
The inhibition of JAK2 kinase activity was determined in 384-well assay microplates using the Z′-Lyte® Kinase Assay kit-Tyr 6 Peptide kit, supplied by Invitrogen (Ref: PV4122), following the manufacturer's instructions.
as §1, with “with 0.5 μg/well” for “with 0.3 μg/mL”, “human JAK2,” for “human JAK3 (amino acid sequence 281-1124),”, “and 16” for “and 4”, “said 16” for “said 4”

Counter-ions that a name gives are not always drawn. Bounds are passed on as bounds.

Chain of catalytic domain of human JAK3 (P52333 781-1124 limits assumed): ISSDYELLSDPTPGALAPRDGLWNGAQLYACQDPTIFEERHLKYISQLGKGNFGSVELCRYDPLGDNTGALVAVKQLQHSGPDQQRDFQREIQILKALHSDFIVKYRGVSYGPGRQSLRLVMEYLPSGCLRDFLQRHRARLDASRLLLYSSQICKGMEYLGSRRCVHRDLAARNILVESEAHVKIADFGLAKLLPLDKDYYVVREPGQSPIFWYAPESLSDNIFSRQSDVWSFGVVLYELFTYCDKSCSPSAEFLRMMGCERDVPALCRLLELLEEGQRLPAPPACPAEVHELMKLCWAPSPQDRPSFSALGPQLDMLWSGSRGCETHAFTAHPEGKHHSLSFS

The term inhibition denotes how much of the control response was suppressed. High values mean a response far below the control, low ones a response near the control. As to `CC(=O)N1CCC(n2c(=O)[nH]c3cnc(-c4cnn5ccc(C)cc45)nc32)CC1` [Example 1s, 9-(1-acetylpiperidin-4-yl)-2-(5-methylpyrazolo[1,5-a]pyridin-3-yl)-7H-purin-8(9H)-one], the inhibition at 1 µM in test [1] and in test [2] was above 50% in each case. For `N#Cc1ccn2ncc(-c3ccc4[nH]c(=O)n(C5CCOCC5)c4n3)c2c1` [Example 2, 3-(2-Oxo-3-(tetrahydro-2H-pyran-4-yl)-2,3-dihydro-1H-imidazo[4,5-b]pyridin-5-yl)pyrazolo[1,5-a]pyridine-5-carbonitrile], the inhibition at 1 µM in test [1] and in test [2] was above 50% in each case.

As to `O=c1[nH]c2ccc(-c3cnn4ccccc34)nc2n1C1CCOCC1` [Example 2e, 5-(pyrazolo[1,5-a]pyridin-3-yl)-3-(tetrahydro-2H-pyran-4-yl)-1H-imidazo[4,5-b]pyridin-2(3H)-one], the inhibition at 1 µM in test [1] and in test [2] was above 50% throughout. On to `Cn1c(=O)n(C2CCOCC2)c2nc(-c3cnn4ccc(C#N)cc34)ncc21` [Example 4, 3-(7-Methyl-8-oxo-9-tetrahydro-2H-pyran-4-yl-8,9-dihydro-7H-purin-2yl)pyrazolo[1,5-a]pyridine-5-carbonitrile], for which the inhibition at 1 µM in test [1] and in test [2] was above 50% in each case. Turning to `Cn1c(=O)n(C2CCOCC2)c2nc(-c3cnn4ccccc34)ccc21` [Example 5s, 1-methyl-5-(pyrazolo[1,5-a]pyridin-3-yl)-3-(tetrahydro-2H-pyran-4-yl)-1H-imidazo[4,5-b]pyridin-2(3H)-one], the inhibition at 1 µM in test [1] and in test [2] was above 50% each time. The compound `O=c1[nH]c2ccc(-c3cnn4ccccc34)nc2n1[C@H]1CCCNC1` [Example 6x, (S)-3-(piperidin-3-yl)-5-(pyrazolo[1,5-a]pyridin-3-yl)-1H-imidazo[4,5-b]pyridin-2(3H)-one hydrochloride] returned an inhibition at 1 µM in test [1] above 50%. On to `C[C@H](C(=O)N(C)C)n1c(=O)[nH]c2cnc(-c3cnn4ccc(C#N)cc34)nc21` [Example 15h], for which the inhibition at 1 µM in test [2] is above 50%.

`C[C@@H](C(=O)NCC(F)(F)F)n1c(=O)[nH]c2cnc(-c3cnn4ccc(C#N)cc34)nc21` [Example 15i]: the inhibition at 1 µM in test [2] is above 50%. For `C[C@@H](C(=O)N(C)C)n1c(=O)[nH]c2cnc(-c3cnn4ccccc34)nc21` [Example 15k], the inhibition at 1 µM in test [2] was above 50%. On the same count and under the same terms, then `COCCn1c(=O)n(C2CCOCC2)c2nc(-c3cnn4ccc(C#N)cc34)ncc21` [Example 16, 3-(7-(2-Methoxyethyl)-8-oxo-9-(tetrahydro-2H-pyran-4-yl)-8,9-dihydro-7H-purin-2-yl)pyrazolo[1,5-a]pyridine-5-carbonitrile], with above 50%; and `CN(C)CCn1c(=O)n([C@H]2CCCN(C(=O)CC#N)C2)c2nc(-c3cnn4ccc(C#N)cc34)ncc21` [Example 16a], with above 50%; and `Cc1nc2cnc(-c3cnn4ccc(C#N)cc34)nc2n1C1CCOCC1` [Example 18a], with above 50%. In turn, `Cc1nc2cnc(-c3cnn4ccc(C#N)cc34)nc2n1C1CCC(F)(F)CC1` [Example 18b] returned an inhibition at 1 µM in test [2] above 50%. Same read-out and setting: then `N#Cc1ccn2ncc(-c3ccc4ncn(C5CCOCC5)c4n3)c2c1` [Example 19, 3-(3-(Tetrahydro-2H-pyran-4-yl)-3H-imidazo[4,5-b]pyridin-5-yl)pyrazolo[1,5-a]pyridine-5-carbonitrile], with above 50%. Turning to `Cc1nc2ccc(-c3cnn4ccc(C#N)cc34)nc2n1C1CCOCC1` [Example 20, 3-(2-Methyl-3-(tetrahydro-2H-pyran-4-yl)-3H-imidazo[4,5-b]pyridin-5-yl)pyrazolo[1,5-a]pyridine-5-carbonitrile], the inhibition at 1 µM in test [1] and in test [2] was above 50% in each case. In test [1], `Cn1ccnc1-c1nc2cnc(-c3cnn4ccc(C#N)cc34)nc2n1C1CCOCC1` [Example 21, 3-(8-(1-Methyl-1H-imidazol-2-yl)-9-(tetrahydro-2H-pyran-4-yl)-9H-purin-2-yl)pyrazolo[1,5-a]pyridine-5-carbonitrile] yielded an inhibition at 1 µM above 50%. In the case of `c1csc(-c2nc3cnc(-c4cnn5ccccc45)nc3n2C2CCOCC2)c1` [Example 21k], the inhibition at 1 µM in test [2] was above 50%.

Turning to `CCNc1nc2cnc(-c3cnn4ccc(C#N)cc34)nc2n1C1CCOCC1` [Example 22, 3-[8-(Ethylamino)-9-tetrahydro-2H-pyran-4-yl-9H-purin-2-yl]pyrazolo[1,5-a]pyridine-5-carbonitrile], the inhibition at 1 µM in test [1] and in test [2] was above 50% each time. As to `c1ccn2ncc(-c3ncc4nc(C5CCCC5)n(C5CCOCC5)c4n3)c2c1` [Example 23, 8-Cyclopentyl-2-(pyrazolo[1,5-a]pyridin-3-yl)-9-(tetrahydro-2H-pyran-4-yl)-9H-purine], the inhibition at 1 µM in test [1] and in test [2] was above 50% in each case. For `c1ccn2ncc(-c3ncc4nc(C5CC5)n(C5CCOCC5)c4n3)c2c1` [Example 23d], the inhibition at 1 µM in test [2] was above 50%. In the case of `CC(=O)N1CCC[C@H](n2c(=O)n(C)c3ccc(-c4cnn5ccccc45)nc32)C1` [Example 24, (S)-3-(1-Acetylpiperidin-3-yl)-1-methyl-5-(pyrazolo[1,5-a]pyridin-3-yl)-1H-imidazo[4,5-b]pyridin-2(3H)-one], the inhibition at 1 µM in test [1] and in test [2] was above 50% throughout.

In turn, `Cn1c(=O)n([C@H]2CCCN(C(=O)C(C)(C)C)C2)c2nc(-c3cnn4ccccc34)ccc21` [Example 24a] had an inhibition at 1 µM in test [2] above 50%.

In the case of `CCC(=O)N1CCC[C@H](n2c(=O)n(C)c3ccc(-c4cnn5ccccc45)nc32)C1` [Example 24c], in test [2], the inhibition at 1 µM is above 50%. `CCOC(=O)N1CCC[C@H](n2c(=O)[nH]c3cnc(-c4cnn5ccc(C#N)cc45)nc32)C1` [Example 26a] registered an inhibition at 1 µM in test [2] above 50%. The compound `CC(C)NC(=O)N1CCC[C@H](n2c(=O)[nH]c3cnc(-c4cnn5ccc(C#N)cc45)nc32)C1` [Example 26c] had an inhibition at 1 µM in test [2] above 50%. The compound `CC(C)(C)NC(=O)N1CCC[C@H](n2c(=O)[nH]c3cnc(-c4cnn5ccc(C#N)cc45)nc32)C1` [Example 26d] yielded an inhibition at 1 µM in test [2] above 50%. On the same count and under the same terms, under `CCOC(=O)n1c(=O)n([C@H]2CCCN(C(=O)CC#N)C2)c2nc(-c3cnn4ccccc34)ncc21` [Example 26e] stands above 50%.

On to `CC(=O)n1c(=O)n([C@H]2CCCN(C(=O)CC#N)C2)c2nc(-c3cnn4ccccc34)ncc21` [Example 26f], for which the inhibition at 1 µM in test [2] was above 50%. The compound `CC(=O)N1CCC[C@H](n2c(=O)n(C)c3cnc(-c4cnn5ccccc45)nc32)C1` [Example 26g] came in with an inhibition at 1 µM in test [2] above 50%.

In turn, `N#Cc1ccn2ncc(-c3ncc4[nH]c(=O)n([C@H]5CCCN(C(=O)C6(O)CC6)C5)c4n3)c2c1` [Example 27a] came in with an inhibition at 1 µM in test [2] above 50%. As to `C[C@H](CO)n1c(=O)[nH]c2cnc(-c3cnn4ccc(C#N)cc34)nc21` [Example 28, (R)-3-(9-(1-Hydroxypropan-2-yl)-8-oxo-8,9-dihydro-7H-purin-2-yl)pyrazolo[1,5-a]pyridine-5-carbonitrile], in test [1], the inhibition at 1 µM was above 50%. Same read-out and setting: under `C[C@H](CO)n1c(=O)n(C)c2cnc(-c3cnn4ccc(C#N)cc34)nc21` [Example 32, (R)-3-(9-(1-Hydroxypropan-2-yl)-7-methyl-8-oxo-8,9-dihydro-7H-purin-2-yl)pyrazolo[1,5-a]pyridine-5-carbonitrile] stands above 50%. In test [2], `CCC(=O)Nc1nc2cnc(-c3cnn4ccccc34)nc2n1C1CCOCC1` [Example 34b] yielded an inhibition at 1 µM above 50%. `Cn1c(=O)n([C@H]2CC[C@H](O)CC2)c2nc(-c3cnn4ccc(C#N)cc34)ncc21` [Example 35, 3-(9-(trans-4-Hydroxycyclohexyl)-7-methyl-8-oxo-8,9-dihydro-7H-purin-2-yl)pyrazolo[1,5-a]pyridine-5-carbonitrile]: the inhibition at 1 µM in test [1] was above 50%.

As to `N#Cc1ccn2ncc(-c3ncc4[nH]c(=O)n(CC(=O)NCC(F)(F)F)c4n3)c2c1` [Example 36, 2-(2-(5-Cyanopyrazolo[1,5-a]pyridin-3-yl)-8-oxo-7H-purin-9(8H)-yl)-N-(2,2,2-trifluoroethyl)acetamide], the inhibition at 1 µM in test [1] is above 50%.

In test [1], `Cn1c(=O)n(C2CCOCC2)c2nc(-c3cnc4ccccn34)ncc21` [Example 37, 2-(Imidazo[1,2-a]pyridin-3-yl)-7-methyl-9-(tetrahydro-2H-pyran-4-yl)-7H-purin-8(9H)-one] yielded an inhibition at 1 µM above 50%.

These data come from patent publication US8946257B2, “N-containing heteroaryl derivatives as JAK3 kinase inhibitors” (Vectura Limited, priority 2009, dated 2015).
